Measurements taken from patent publication US9200017B2, “Multimodal imaging of fibrin” (The General Hospital Corporation, priority 2009, dated 2015).

Molecular target: T1, Thrombus (Rattus norvegicus, UniProt P02680+P06399+P14480)
T1 construct: thrombin cleaves fibrinopeptides on fibrinogen resulting in an end-to-end polymerization to give the polymer fibrin; A day old autologous blood clot was injected into the right internal carotid artery; from tissue; host or cells: autologous blood clot in the right internal carotid artery of Wistar rats
T1 sequence (P06399 37-550 isoform P06399-2 limits assumed): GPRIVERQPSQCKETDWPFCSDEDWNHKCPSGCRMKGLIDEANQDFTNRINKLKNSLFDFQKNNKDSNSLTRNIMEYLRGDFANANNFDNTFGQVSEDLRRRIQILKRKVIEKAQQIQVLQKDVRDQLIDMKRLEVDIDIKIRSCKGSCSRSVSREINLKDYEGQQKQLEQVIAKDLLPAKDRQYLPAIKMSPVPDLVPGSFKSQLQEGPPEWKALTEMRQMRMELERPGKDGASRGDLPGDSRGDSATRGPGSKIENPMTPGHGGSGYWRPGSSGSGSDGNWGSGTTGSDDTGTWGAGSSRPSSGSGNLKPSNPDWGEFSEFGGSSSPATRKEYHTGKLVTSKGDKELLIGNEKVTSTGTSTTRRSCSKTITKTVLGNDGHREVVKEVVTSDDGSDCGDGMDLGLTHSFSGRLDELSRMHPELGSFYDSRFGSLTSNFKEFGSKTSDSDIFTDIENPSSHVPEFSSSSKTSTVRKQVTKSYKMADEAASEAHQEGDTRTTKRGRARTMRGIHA
T1 sequence (P14480 33-479 limits assumed): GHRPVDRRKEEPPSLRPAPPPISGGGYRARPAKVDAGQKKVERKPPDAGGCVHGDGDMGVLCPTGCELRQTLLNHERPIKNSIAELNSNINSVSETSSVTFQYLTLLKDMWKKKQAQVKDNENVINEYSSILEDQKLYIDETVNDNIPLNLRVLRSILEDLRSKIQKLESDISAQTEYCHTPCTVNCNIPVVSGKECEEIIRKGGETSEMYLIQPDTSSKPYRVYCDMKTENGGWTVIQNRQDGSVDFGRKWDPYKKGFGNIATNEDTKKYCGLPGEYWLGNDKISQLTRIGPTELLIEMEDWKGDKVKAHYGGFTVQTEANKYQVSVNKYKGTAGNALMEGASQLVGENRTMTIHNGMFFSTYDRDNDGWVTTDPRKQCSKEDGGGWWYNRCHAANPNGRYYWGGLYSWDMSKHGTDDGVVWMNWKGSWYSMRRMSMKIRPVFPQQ
T1 sequence (P02680 26-437 isoform P02680-2 limits assumed): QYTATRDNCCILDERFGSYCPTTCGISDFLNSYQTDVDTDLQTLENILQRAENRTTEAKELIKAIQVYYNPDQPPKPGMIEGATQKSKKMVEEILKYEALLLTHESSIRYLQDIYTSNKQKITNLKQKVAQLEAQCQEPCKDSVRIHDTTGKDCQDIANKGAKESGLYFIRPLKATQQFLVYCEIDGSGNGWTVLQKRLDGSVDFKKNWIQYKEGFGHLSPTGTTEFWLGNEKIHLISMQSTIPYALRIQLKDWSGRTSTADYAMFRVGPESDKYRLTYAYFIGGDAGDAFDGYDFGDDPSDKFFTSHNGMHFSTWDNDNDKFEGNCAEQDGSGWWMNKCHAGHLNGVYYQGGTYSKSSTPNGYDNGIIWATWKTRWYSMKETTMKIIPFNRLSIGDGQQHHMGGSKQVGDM
Test: MR-PET imaging of occlusive thrombus in right internal carotid artery of rats
Type: in vivo
Conditions: for PET time-activity curve in thrombus: over 90 min, contralateral vessel signal decays with time; for Thrombus visibility on black-blood T1-weighted MR post injection: six animals imaged
Method: All animal studies were approved by the Subcommittee on Research Animal Care at Massachusetts General Hospital. The occlusive thrombus model was described previously (Zhang R L, Chopp M, Zhang Z G, Jiang Q, and Ewing J R., Brain Res. 1997 766(1-2):83-92). Briefly, male Wistar rats (350-400 g, n=8; Charles River Laboratories, Wilmington, Mass.) were anaesthetized with isoflurane (1-2% in 70% N2O and 30% O2) and body temperature was kept at 37.5° C. A day old autologous blood clot was injected into the right internal carotid artery (ICA) at the level of the middle cerebral artery (MCA). The femoral vein was cannulated for intravenous delivery of the contrast agent. Simultaneous PET and MR were acquired on a clinical 3T MRI-BrainPET scanner using a home-built receive surface coil and a CP transmit coil. After baseline MR scans were acquired, the dual MR-PET probe was injected at a dose of 11.5 μmol/kg (46 μmol Gd/kg, total activity=19.6±5.9 MBq). The animals were sacrificed 2 h post-injection. In total, six animals underwent imaging while in two additional animals only biodistribution data was collected.
The list-mode emission data from PET were rebinned in the sinogram space for fast reconstruction. The uncorrected PET volume was first reconstructed and binary segmented based on an empirically determined threshold in soft tissue and air. A uniform linear attenuation coefficient (0.096 cm^−1, corresponding to water at 511 keV) was assigned to all soft tissue voxels and the resulting attenuation map (combined with the coil attenuation map) was forward projected to derive the attenuation correction factors in sinogram space. A model-based approach was used to derive the scatter sinogram. The normalization was calculated from a 64 hr scan of a plane-source rotated in the FOV. The images were reconstructed with the ordinary Poisson ordered subsets expectation maximization (OP-OSEM) algorithm using 16 subsets and 6 iterations. The reconstructed volume consists of 153 slices with 256×256 pixels (1.25×1.25×1.25 mm^3). The spatial resolution at the center of the field of view is approximately 2.5 mm.
The emission data were recorded in list-mode format for approximately 90 min (9×10 min frames) after MR-PET probe administration. The data acquired in each individual frame were processed and images were reconstructed after acquisition for immediate analysis. Images were also reconstructed from the data acquired 30-90 minutes post injection. Additionally, thirty 3-minute frames were generated and the tracer uptake in structures of interest as a function of time was analyzed.
The MR imaging sequence included MP-RAGE and 3D T1-weighted gradient echo scans with and without inflow saturation. The latter were used for time of flight (TOF) angiography. The field of view scanned for the 3D sequences was 85×85 mm^2, with repetition time (TR), echo time (TE), and flip angle of 32 ms, 5.78 ms and 18°, respectively. […] For the MP-RAGE, the parameters used were inversion time TI=900 ms, TR/TE=2300/4.4, NEX=1, FOV=49×49 mm^2, matrix=192×192, slice thickness=0.26 mm for resolution=0.26 mm^3.
MR images were analyzed using OsiriX (www.osirix-viewer.com) by drawing regions of interest (ROI) in the thrombus, contralateral artery and adjacent tissue and quantifying signal intensity (SI). Noise was quantified as the standard deviation (SD) of the signal measured in the air outside the animal. Contrast to noise ratios (CNR) were calculated for the difference between tissue A and tissue B using the following equation (1). CNR(tissue A/tissue B)=[SI(tissue A)−SI(tissue B)]/SD(air) (1)
Signal intensity ratios (SIR) between the thrombus (ipsilateral) and contralateral vessel were calculated using equation (2) for images pre- and 10 min post-probe administration. SIR=[SI(ipsilateral)/SI(contralateral)]post/[SI(ipsilateral)/SI(contralateral)]pre (2) […]

CNRthrombus:brain post probe (black-blood MR, 11.5 μmol/kg i.v., pre-injection −2.0±2.2, p<0.005): 13.0±2.0
PET SIRipsi:contra (hyperintense lesion vs identical contralateral volume of interest, p<0.01): 1.85±0.48
PET time-activity curve in thrombus: rapid and static uptake in the thrombus
Thrombus visibility on black-blood T1-weighted MR post injection (listed as Gd3-EP-2104R-^64Cu): clearly visible
MR SIRpost/SIRpre (thrombus vs contralateral vessel, pre and 10 min post probe, p<0.01): 1.71±0.35
Substance: Gd3-EP-2104R-Cu [Compound 21]
PET time-activity curve in thrombus (listed as Gd3-EP-2104R-^64Cu): activity remains approximately constant over 90 min
Thrombus visibility on black-blood T1-weighted MR post injection: now bright indicating the presence of thrombus
